For one test, the system named is α2 GlyRs. Particulars: read-out: mean value of EC50 for glycine; ref Maleeva et al., 2015; cited from earlier work.
The next test deals with T1, α2 GlyR (Homo sapiens, UniProt P23416).
T1 construct: expressed in transfected cells; host or cells: CHO cells
T1 sequence (P23416 28-452 isoform P23416-2 limits assumed): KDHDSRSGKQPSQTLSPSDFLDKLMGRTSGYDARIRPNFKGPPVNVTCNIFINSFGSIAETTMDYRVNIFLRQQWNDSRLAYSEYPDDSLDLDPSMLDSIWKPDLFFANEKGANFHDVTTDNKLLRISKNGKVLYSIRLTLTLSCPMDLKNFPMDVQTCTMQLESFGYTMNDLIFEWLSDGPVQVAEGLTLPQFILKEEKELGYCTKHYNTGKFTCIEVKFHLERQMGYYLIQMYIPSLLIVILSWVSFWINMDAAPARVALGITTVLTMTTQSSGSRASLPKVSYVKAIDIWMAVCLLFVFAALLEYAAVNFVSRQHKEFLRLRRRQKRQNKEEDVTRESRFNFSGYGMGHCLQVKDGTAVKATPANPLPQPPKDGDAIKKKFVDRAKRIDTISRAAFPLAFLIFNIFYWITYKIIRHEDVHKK
Description: Whole-cell patch-clamp of glycine-induced currents, α2 GlyR expressed in CHO cells. Particulars: PTX 20 μM; glycine 30 μM; Vhold −30 mV. It is filed as cell-based. On the procedure:
(§1) The experiments were carried out on cultured Chinese hamster ovary (CHO) cells obtained from the American Type Tissue Culture Collection (ATCC, Molsheim, France) that were maintained in culture conditions as previously described (Mukhtarov et al., [2013]; Maleeva et al., [2015]).
(§2) One day before transfection, cells were plated on the cover slips (12 mm in diameter) and placed inside 35-mm cell culture dishes with 2 ml of medium. Transfection was performed using the Lipofectamine 3000 protocol (Life Technology, USA). To facilitate identification of transfected cells a green fluorescent protein (GFP) was added to the transfection mixture. For expression of functional heteromeric receptors, cells were simultaneously transfected with cDNAs of α and β subunits in the ratio 1:10. Three hours after the initial exposure of cells to the cDNAs the culture medium was replaced with that containing strychnine (1 μM), which prevents spontaneous activation of GlyRs. Electrophysiological recordings were performed in the fluorescent cells 24–72 h after transfection.
(§3) Whole-cell and outside-out recordings were performed at room temperature (20–25°C) using an EPC-9 amplifier (HEKA Elektronik, Germany). Cells were continuously superfused with external solution containing (mM): NaCl 140, CaCl2 2, KCl 2.8, MgCl2 4, HEPES 20, glucose 10; pH 7.4; 320–330 mOsm. Intracellular solution used for filling recording patch pipettes contained (mM): CsCl 140, CaCl2 6, MgCl2 2, MgATP 2, NaGTP 0.4, HEPES/CsOH 10, BAPTA (tetrapotassium salt) 2; pH 7.3; 290 mOsm. Two different protocols of solutions application were used in this study. […] A “ramp protocol” implies the gradual change of Vhold alternately from −80 to +80 mV and from +80 to −80 mV during 1 s, Vhold was fixed at −80 or +80 mV at the beginning and at the end of the ramp for 500 ms (Figure 2B).
(§4) Recording pipettes were pulled from borosilicate glass capillaries (Harvard Apparatus Ltd, USA) and had resistances of 5–10 MOhm. For the rapid replacement of the solutions, the fast application system was used. Three parallel rectangular tubes (100 × 100 μm) were positioned 40–50 μm above the recorded cell. The movement of the tubes was controlled by a computer-driven fast exchange system (SF 77A Perfusion Fast-Step, Warner, USA) allowing a 10–90% solution exchange in 3–5 ms, as measured by open electrode controls (1/10 external solution/water). Cells with low input resistance (<150 MOhm) and a rapid run-down (>30% with repetitive application) were excluded from analysis.
(§5) Electrophysiological recordings were performed using PatchMaster (HEKA Electronic, Germany) software.
(§6) The fractional electrical distance from the external side of the membrane (δ) at which bound NFA blocked the current was calculated using the Woodhull equation: IC50(V)=IC50(0) exp (−δFV/RT), where IC50(V) is IC50 at the given membrane potential, IC50(0) – at 0 mV, V – membrane potential and F, R, T have their usual meanings. δ was determined from a plot of IC50 values against membrane potential.
In general terms: Patch clamp records ionic current or voltage across a cell membrane.

For the next test, the target named is T2, α2β GlyR (Homo sapiens, UniProt P23416+P48167).
T2 construct: expressed in transfected cells; host or cells: CHO cells
T2 sequence (P48167 23-497, one chain of several): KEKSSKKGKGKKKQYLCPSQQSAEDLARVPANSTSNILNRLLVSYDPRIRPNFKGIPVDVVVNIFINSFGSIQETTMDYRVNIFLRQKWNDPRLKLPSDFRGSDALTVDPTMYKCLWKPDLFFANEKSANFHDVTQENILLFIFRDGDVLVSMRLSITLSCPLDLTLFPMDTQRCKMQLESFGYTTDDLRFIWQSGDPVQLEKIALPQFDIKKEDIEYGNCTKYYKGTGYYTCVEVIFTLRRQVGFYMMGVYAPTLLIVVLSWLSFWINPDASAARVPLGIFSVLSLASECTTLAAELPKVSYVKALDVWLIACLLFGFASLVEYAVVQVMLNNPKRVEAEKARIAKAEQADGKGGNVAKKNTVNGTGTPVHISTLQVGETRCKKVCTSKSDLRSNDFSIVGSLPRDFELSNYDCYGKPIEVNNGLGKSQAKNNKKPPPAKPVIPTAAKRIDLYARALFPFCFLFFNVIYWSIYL
Description: Whole-cell patch-clamp of glycine-induced currents, heteromeric α2β GlyR expressed in CHO cells. Format: cell-based. Particulars: PTX 20 μM; glycine 30 μM; Vhold −30 mV. On the procedure:
as §1, §2, §3, §4, §5

Another test concerns the target T3, homomeric α1 GlyR (Homo sapiens, UniProt P23415).
T3 construct: expressed in transfected cells; host or cells: CHO cells
T3 sequence (P23415 29-449 isoform P23415-2 limits assumed): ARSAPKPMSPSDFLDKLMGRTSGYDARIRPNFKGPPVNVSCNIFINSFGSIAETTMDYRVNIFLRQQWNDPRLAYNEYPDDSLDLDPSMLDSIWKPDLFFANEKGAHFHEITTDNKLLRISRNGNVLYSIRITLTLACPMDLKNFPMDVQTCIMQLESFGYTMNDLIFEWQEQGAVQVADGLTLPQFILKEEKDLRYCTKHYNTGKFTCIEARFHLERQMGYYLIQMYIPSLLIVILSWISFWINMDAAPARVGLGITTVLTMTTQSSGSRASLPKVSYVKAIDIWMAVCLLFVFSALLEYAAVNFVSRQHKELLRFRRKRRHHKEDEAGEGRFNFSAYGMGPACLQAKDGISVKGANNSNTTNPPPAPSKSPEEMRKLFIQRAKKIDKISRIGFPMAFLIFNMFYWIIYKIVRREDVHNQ
Description: Whole-cell patch-clamp of glycine-induced currents, α1 GlyR expressed in CHO cells. Format: cell-based. Particulars: PTX 20 μM; glycine 30 μM; Vhold −30 mV. On the procedure: as §1, §2, §3, §4, §5, §6

The next test deals with T4, α1β GlyR (Homo sapiens, UniProt P23415+P48167).
T4 construct: expressed in transfected cells; host or cells: CHO cells
T4 sequence (P48167 23-497, one chain of several): as the sequence (P48167 23-497, one chain of several) above
Kind of test: Whole-cell patch-clamp of glycine-induced currents, heteromeric α1β GlyR expressed in CHO cells. It is filed as cell-based. Particulars: PTX 20 μM; glycine 30 μM; Vhold −30 mV. On the procedure: as §1, §2, §3, §4, §5

This is an account of results in publication PMC5432571 (Frontiers in Molecular Neuroscience, 2017).

On to `NCC(=O)O` [glycine], for which the concentration for a half-maximal effect (EC50) in the test on α2 GlyRs is 42 ± 2 µM.

In the case of picrotoxin [PTX], the “amplitude of current, % of the control” value is 3 ± 1% at α2 GlyR and 27 ± 3% on homomeric α1 GlyR. In addition, the “current, % from the control” value at α2β GlyR was 41 ± 4%; at α1β GlyR, 75 ± 2%.

Usually EC50 stands for the concentration needed to bring the measured effect to its halfway point.
